Results: publication PMC3618660 (Journal of medicinal chemistry, 2013)

Legend:
C57BL/6 mice = assay: mouse warm water tail withdrawal; format: in vivo
mu opioid receptor (MOR) = mu opioid receptor (MOR) (Rattus norvegicus, UniProt P33535); assay: [3H]diprenorphine competitive displacement binding, C6-MOR membranes
[1] = target: delta opioid receptor (DOR) (Rattus norvegicus, UniProt P33533); assay: antagonism of DPDPE-stimulated GTPγS binding at DOR; format: biochemical
delta opioid receptor (DOR), sequence (P33533 whole entry): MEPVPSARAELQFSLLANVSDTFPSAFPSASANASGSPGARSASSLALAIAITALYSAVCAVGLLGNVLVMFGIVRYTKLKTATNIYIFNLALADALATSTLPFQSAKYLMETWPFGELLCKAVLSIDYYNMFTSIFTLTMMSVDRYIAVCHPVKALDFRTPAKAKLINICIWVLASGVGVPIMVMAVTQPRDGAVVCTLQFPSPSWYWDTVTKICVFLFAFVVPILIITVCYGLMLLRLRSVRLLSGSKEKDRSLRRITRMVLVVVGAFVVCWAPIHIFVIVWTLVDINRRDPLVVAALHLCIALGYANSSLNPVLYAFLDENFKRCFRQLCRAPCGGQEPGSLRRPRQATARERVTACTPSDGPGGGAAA

mu opioid receptor (MOR), sequence (P33535 whole entry): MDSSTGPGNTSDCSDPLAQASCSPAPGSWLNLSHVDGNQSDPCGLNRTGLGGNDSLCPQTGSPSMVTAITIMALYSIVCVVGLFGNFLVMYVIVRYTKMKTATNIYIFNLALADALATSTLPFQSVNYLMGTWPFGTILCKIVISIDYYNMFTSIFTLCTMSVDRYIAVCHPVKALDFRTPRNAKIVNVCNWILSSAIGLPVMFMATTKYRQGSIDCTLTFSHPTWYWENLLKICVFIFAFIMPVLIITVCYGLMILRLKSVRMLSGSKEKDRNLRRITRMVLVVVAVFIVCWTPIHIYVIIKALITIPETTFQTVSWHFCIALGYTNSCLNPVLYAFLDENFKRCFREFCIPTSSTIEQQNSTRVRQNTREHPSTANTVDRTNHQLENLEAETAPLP

Question: Which results are given for Cc1cc(O)cc(C)c1C[C@H](N)C(=O)N[C@@H]1CCNc2ccc(Cc3ccccc3)cc21 [1 (4R)]?
Answer: ED50 (C57BL/6 mice; Mus musculus, ip, read-out: ED50, tail withdrawal latency): ~6 µmol/kg; antinociceptive potency compared with morphine (C57BL/6 mice; mouse WWTW after intraperitoneal administration): approximately equipotent to morphine; time maximal antinociception is maintained (C57BL/6 mice; mouse WWTW time course, 10 mg/kg ip): approximately 60 minutes; effect of naltrexone pretreatment on dose/response curve (C57BL/6 mice; naltrexone 1mg/kg ip, 30 min pretreatment, mouse WWTW): rightward shift

Question: With Cc1cc(O)cc(C)c1C[C@H](N)C(=O)N[C@@H]1CCNc2ccc(Cc3cccc4ccccc34)cc21 [Compound 15b, (2S)-2-Amino-3-(4-hydroxy-2,6-dimethylphenyl)-N-(6-(naphthalen-1-ylmethyl)-1,2,3,4-tetrahydroquinolin-4-yl)propanamide] as the molecule, how does the Ki (mu opioid receptor (MOR)) read?
Answer: 0.76 ± 0.14 nM

Question: Cc1cc(O)cc(C)c1C[C@H](N)C(=O)NC1CCNc2ccc(Cc3ccc4ccccc4c3)cc21 (stereo partly drawn) [Compound 15c, (2S)-2-Amino-3-(4-hydroxy-2,6-dimethylphenyl)-N-(6-(naphthalen-2-ylmethyl)-1,2,3,4-tetrahydroquinolin-4-yl)propanamide] was tested. Which Kb [1] did it give?
Answer: 34.3 nM
